Earlier results as cited in patent US20260232690A1, “Treatment of the Chronic Effects of Brain Injury Using Rho Kinase Inhibitors” (WOOLSEY PHARMACEUTICALS, INC., priority 2023, published 2026).

Tested on: salt-loaded hypertensive stroke-prone rats

## Cl.O=S(=O)(c1cccc2cnccc12)N1CCCNCC1 [Fasudil, 5-(1,4-Diazepane-1-sulfonyl) isoquinoline]
  nephrosclerosis: attenuate nephrosclerosis
  survival: improve survival
